Assay results from US20210276960A1, “INHIBITORS OF TISSUE TRANSGLUTAMINASE 2 (TG2) AND USES THEREOF” (Northwestern University, priority 2020, published 2021).

Key:
FN45-TG2 interaction = experiment: Bio-layer interferometry (BLI) of FN45-TG2 binding
Protocol: (§1) The 45 kDa fibronectin fragment (FN45) corresponding to the TG2 binding region (Sigma, # F0162) was biotinylated using Biotin (Type A) Fast Conjugation Kit (Abcam, # ab201795). Biotinylated FN45 (10 μg/mL in PBS) was captured on pre-hydrated streptavidin-coated sensors (Pall Forte Bio SAX 18-5117). At each TG2 concentration, the binding kinetics were determined by following this sequence run: baseline (PBS for 30 s), association step (varying concentrations of TG2 in PBS for 120 s), and dissociation step (PBS for 120 s). A new FN45 biosensor was prepared for each run. To analyze the effect of the inhibitor MT4 on the interaction between TG2 and FN, a solution of 20 μg/mL of bio-FN45 was used for capturing FN45 on the streptavidin-coated sensors and the association step was 90 s. For each sensor, the capturing step was measured in real-time in order to assess the stability of the signal and the reproducibility between sensors. The saturation level Rmax was 0.6 (+0.08) for all sensors and no dissociation of the biotinylated FN45 was observed over 60 minutes. […] For the experiments with (TG2+MT4), controls were performed at each MT4 concentration and Rmax values were corrected for non-specific binding and any effects of DMSO on the TG2-FN45 interaction (these effects were below 8%). All BLI experiments were performed at 22° C. Data fitted globally using the BLItz Pro 1.10.31 software package as described(14, 15). Isothermal titration calorimetry (ITC) was performed at 25° C. by titrating 160 μM MT4 into a 10 μM solution of TG2 (Sigma, #T5398).

OVCAR5 cells = experiment: Colony forming assay after priming, with paclitaxel; assay type: cell-based, human; settings: priming with 1 μM for 72 hours before 5 nM PTX
Protocol: After 72 h priming with either 1 μM MT-4, TG53 or vehicle (DMSO), 150 OVCAR5 cells were seeded in 60 mm dishes and treated or not with paclitaxel (PTX, Sigma). Colonies were allowed to form over 10 days, fixed in 4% PFA and stained with 0.4% crystal violet (MP Biomedicals). Colonies were counted, and analysis was performed using the ImageJ software ([…]).Spheroid cultures were carried out as previously described(Condello et al., 2015). Briefly, OC cells were resuspended in Mammocult complete medium (StemCell Technologies) supplemented with Mammocult Proliferation Supplements, heparin and hydrocortisone (StemCell Technologies) and seeded at a concentration of 10,000 cells/well in 96-well ultra-low attachment plates (Corning, Corning, N.Y., USA). After treatment with DMSO (control) or TG53 (1 μM) for 7 days, spheroids were counted and quantified by the CCK-8 assay. All assays were performed in four replicates and were repeated. For priming before PTX treatment, cells were manipulated as described for CFU assay and then seeded in 6-well low-attachment plate (Corning, #3473) at 7000 cells/mL/well and allowed to form spheroids in complete Mammocult media. Spheres were counted after ten days from 4 replicate wells. Two independent experiments were performed.

[1] = tested on: SKOV3 cells adhesion onto LP9 monolayers; experiment: Cell adhesion to LP9 mesothelial monolayers, SKOV3; assay type: cell-based; settings: 25 μM
Protocol: LP9 mesothelial cells added to clear-bottom 96-well plate at 12,000 cells/well were grown to confluency over 48 hours (h). OC cells were labeled with calcein AM and seeded at a density of 4×10^4 cells to monolayers of mesothelial cells and incubated for 1 h. Non-adherent cells were removed by washing with PBS.

TG2 = molecular target: T1, TG2 (Cavia cutleri, UniProt P08587); experiment: Isothermal titration calorimetry (ITC); assay type: binding
T1 construct: purchased Sigma T5398
Protocol: as §1, with “Data fitted globally using the BLItz Pro 1.10.31 software package as described(14, 15). Isothermal titration calorimetry (ITC) was performed at 25° C. by titrating 160 μM MT4 into a 10 μM solution of TG2 (Sigma, #T5398).” left out

purified TG2 = molecular target: T2, purified TG2 (UniProt P08587); settings: not shown, see ref 11; cited from earlier work
T2 construct: purchased Sigma T5398

OC cells = settings: 10 μM; not shown, see ref 11; cited from earlier work
[2] = tested on: TG2 co-localization with integrin β1, p-FAK, c-Src, p-c-Src in SKOV3 cells; experiment: Confocal IF co-localization analysis; assay type: cell-based; settings: 1 μM
Protocol: In order to analyze cell adhesion complex proteins expression and localization upon early attachment, cells were treated as stated above and then seeded onto FN-coated cover slips for 30 minutes at 37° C. Samples were fixed in 4% p-formaldehyde (PFA) and permeabilized with 0.2% Triton-X-100. After blocking, focal contacts were identified by using anti-vinculin antibodies, activation of integrins signaling pathway was assessed by antibodies against phosphorylated focal adhesion kinase (FAK), while actin cytoskeleton was labeled by Alexa Fluor 488-conjugated phalloidin (Life Technologies, #A12379). Nuclei were stained with 1:10000 Hoechst (Thermo Scientific) and specimens were mounted in Prolong Gold anti-fadereagent (Life Technologies). Cells were analyzed by laser scanning using a Nikon A1RGaAsPConfocal Laser Microscope. For co-localization analyses, SKOV3 cells were treated with DMSO (control) or TG53 (1 μM) and plated on FN-coated chamber slides (BD Biosciences) for 72 hrs. […] Colocalization percentage was calculated by normalizing the pixels corresponding to Cy5 or Alexa Fluor 488 emissions to DAPI pixels in the same cell, followed by merging area of green with area of red and determination of average of overlap areas. A Student' t test was calculated to determine statistical significance of differences between drug treated and DMSO control treated cells.

T1 sequence (P08587 whole entry): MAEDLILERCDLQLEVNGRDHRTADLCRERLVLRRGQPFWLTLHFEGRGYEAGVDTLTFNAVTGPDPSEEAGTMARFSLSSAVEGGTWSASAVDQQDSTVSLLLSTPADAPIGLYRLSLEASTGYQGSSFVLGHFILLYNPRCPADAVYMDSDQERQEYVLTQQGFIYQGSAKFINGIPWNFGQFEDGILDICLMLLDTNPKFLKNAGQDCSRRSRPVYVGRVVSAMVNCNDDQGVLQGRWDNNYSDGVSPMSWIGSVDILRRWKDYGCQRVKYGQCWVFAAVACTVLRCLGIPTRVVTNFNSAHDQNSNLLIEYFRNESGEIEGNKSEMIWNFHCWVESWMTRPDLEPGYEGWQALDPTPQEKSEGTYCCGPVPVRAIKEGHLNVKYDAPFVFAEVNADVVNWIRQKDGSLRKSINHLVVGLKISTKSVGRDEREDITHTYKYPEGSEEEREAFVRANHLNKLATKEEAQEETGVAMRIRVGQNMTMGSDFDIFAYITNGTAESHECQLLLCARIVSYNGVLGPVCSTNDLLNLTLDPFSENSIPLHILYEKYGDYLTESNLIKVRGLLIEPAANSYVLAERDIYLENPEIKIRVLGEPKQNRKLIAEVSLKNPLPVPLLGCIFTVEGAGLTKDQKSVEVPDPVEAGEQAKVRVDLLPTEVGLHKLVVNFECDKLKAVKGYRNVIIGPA
T2 sequence (P08587 whole entry): as above

Row | Compound | FN45 and rTG2 complex formation (FN45-TG2 interaction; FN45 on sensors incubated with MT4, 16 nM to 500 μM, 15, 30, 45 minutes) | dissociation of FN45-TG2 (FN45-TG2 interaction; TG2 pre-incubated with MT4) | association between FN45 and rTG2 (FN45-TG2 interaction; rTG2 incubated with MT4 prior to BLI) | colony formation (OVCAR5 cells) | SKOV3 cell binding to the mesothelial layer [1] | Kd (TG2) | change in enthalpy, ΔH (TG2; 160 μM MT4 titrated into 10 μM TG2, 25° C.) | TG2 enzymatic activity (purified TG2) | wound closure, cell migration rate, and invasion through matrigel coated trans-well plates (OC cells) | FAK and Src phosphorylation [2] | colocalization of TG2 with integrin β1, pFAK, c-Src and pSrc [2]
1 | Cc1cc(N(C)C)nc(Nc2ccc(NC(=O)Cc3ccccc3)cc2)n1 [MT-4] | not affected | faster dissociation | Dose-dependent inhibition | diminished | significantly decreased | 5.1 µM | -20.5 kcal/mol | – | – | – | –
2 | COc1ccc(Cl)cc1C(=O)Nc1ccc(Nc2nc(C)cc(N(C)C)n2)cc1 [TG53] | – | – | – | – | – | – | – | did not inhibit | decreased | marked decrease | significant decrease
